In patent US7202049B2, “Mitogen-activated protein kinase p38-2 and methods of use therefor” (Signal Pharmaceuticals, Inc., priority 1996, dated 2007):

System: p38-2
Assay: Immune complex kinase assay of HA-tagged p38-2 from transiently transfected COS cells, GST-ATF2 substrate
Format: cell-based, human
Excerpt: An expression vector encoding epitope-tagged p38-2 (3×HA-p38-2-SRα3) was constructed by adding sequence encoding three copies of a 10 amino acid hemagglutinin (HA) epitope to the N-terminus of p38-2 and ligating the resulting cDNA into the expression vector SRα3. To investigate the pattern of regulation of p38-2, COS cells were transiently transfected with HA-p38-2-SRα3 (as described above) by the DEAE-Dextran method (Kawai and Nishizawa, Mol. Cell. Biol. 4:1172–1174, 1984).
Following treatment, cell lysates were prepared by solubilization in lysis buffer as described (Derijard et al., Cell 76:1025–1037, 1994), and protein concentration of lysates was determined by Bradford assay (Bradford, Ann Biochem. 72:248–254, 1976). Cell lysates were used in an immune complex kinase assay with GST-ATF2 substrate, prepared as previously described (Gupta et al., Science 267:389–39, 1995). The assay was generally performed as described previously (Derijard et al., Cell 76:1025–1037, 1994; Lin et al., Science 268:286–290, 1995) with minor modifications. The concentration of [γ-^32P]ATP was 50 nM, and 30 μg cell lysate was immunoprecipitated for 2 hours with the anti-HA antibody 12CA5 (Boehringer-Mannheim Corp., Indianapolis, Ind.) and then incubated with 1 μg of recombinant substrate.

SMILES	increase in p38-2 activity (ATF2 phosphorylation)	induction of p38-2 (kinase activity, ATF2 phosphorylation) (COS cells transfected with HA-p38-2, anisomycin 50 ng/mL for 45 minutes)
[Cl-].[Na+] [NaCl]	No increase	
COc1ccc(C[C@H]2NC[C@H](O)[C@H]2OC(C)=O)cc1 [anisomycin]		strong induction
